Assay results reported in the supplement of paper PMC11451515.

Tested on: NOMO1
Assay: cell viability relative to DMSO control; higher = less cytotoxic
Settings: 48 h
Method in brief: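 Viability was expressed as a per-plate percentage of DMSO wells, with cell-free wells as background. Leukemia cells (NOMO1 or SEM at 500 cells/well, P12-Ichikawa at 1000 cells/well) were adapted for at least four passages in each medium and seeded in 1536-well plates (5 μl). Library compounds in DMSO were pin-dosed over an 11-point threefold series from 47 μM to 0.79 nM, and CellTiter-Glo One luminescence was read after 48 h at 37°C.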

[1] = HPLM + 10% dialyzed FBS, 0.000781 µM
[2] = HPLM + 10% dialyzed FBS, 0.00234 µM
[3] = HPLM + 10% dialyzed FBS, 0.00702 µM
[4] = HPLM + 10% dialyzed FBS, 0.0211 µM
[5] = HPLM + 10% dialyzed FBS, 0.0632 µM
[6] = HPLM + 10% dialyzed FBS, 0.19 µM
[7] = HPLM + 10% dialyzed FBS, 0.569 µM
[8] = HPLM + 10% dialyzed FBS, 1.71 µM
[9] = HPLM + 10% dialyzed FBS, 5.12 µM
[10] = HPLM + 10% dialyzed FBS, 15.4 µM
[11] = HPLM + 10% dialyzed FBS, 46.1 µM
[12] = RPMI 5 mM glucose + 10% FBS, 0.000781 µM
[13] = RPMI 5 mM glucose + 10% FBS, 0.00234 µM
[14] = RPMI 5 mM glucose + 10% FBS, 0.00702 µM
[15] = RPMI 5 mM glucose + 10% FBS, 0.0211 µM
[16] = RPMI 5 mM glucose + 10% FBS, 0.0632 µM
[17] = RPMI 5 mM glucose + 10% FBS, 0.19 µM
[18] = RPMI 5 mM glucose + 10% FBS, 0.569 µM
[19] = RPMI 5 mM glucose + 10% FBS, 1.71 µM
[20] = RPMI 5 mM glucose + 10% FBS, 5.12 µM
[21] = RPMI 5 mM glucose + 10% FBS, 15.4 µM
[22] = RPMI 5 mM glucose + 10% FBS, 46.1 µM
[23] = RPMI 5 mM glucose + 10% dialyzed FBS, 0.000781 µM
[24] = RPMI 5 mM glucose + 10% dialyzed FBS, 0.00234 µM
[25] = RPMI 5 mM glucose + 10% dialyzed FBS, 0.00702 µM
[26] = RPMI 5 mM glucose + 10% dialyzed FBS, 0.0211 µM
[27] = RPMI 5 mM glucose + 10% dialyzed FBS, 0.0632 µM
[28] = RPMI 5 mM glucose + 10% dialyzed FBS, 0.19 µM
[29] = RPMI 5 mM glucose + 10% dialyzed FBS, 0.569 µM
[30] = RPMI 5 mM glucose + 10% dialyzed FBS, 1.71 µM
[31] = RPMI 5 mM glucose + 10% dialyzed FBS, 5.12 µM
[32] = RPMI 5 mM glucose + 10% dialyzed FBS, 15.4 µM
[33] = RPMI 5 mM glucose + 10% dialyzed FBS, 46.1 µM

SMILES: CCOc1ccccc1OCCNC(C)Cc1ccc(OC)c([S+](N)(=O)[O-])c1 (centres undefined)
- cell viability [1]: 103%
- cell viability [2]: 105%
- cell viability [3]: 96.8%
- cell viability [4]: 121%
- cell viability [5]: 129%
- cell viability [6]: 119%
- cell viability [7]: 120%
- cell viability [8]: 114%
- cell viability [9]: 109%
- cell viability [10]: 115%
- cell viability [11]: 102%
- cell viability [12]: 98.8%
- cell viability [13]: 110%
- cell viability [14]: 115%
- cell viability [15]: 117%
- cell viability [16]: 105%
- cell viability [17]: 112%
- cell viability [18]: 102%
- cell viability [19]: 101%
- cell viability [20]: 109%
- cell viability [21]: 102%
- cell viability [22]: 101%
- cell viability [23]: 90.1%
- cell viability [24]: 108%
- cell viability [25]: 110%
- cell viability [26]: 112%
- cell viability [27]: 111%
- cell viability [28]: 108%
- cell viability [29]: 109%
- cell viability [30]: 101%
- cell viability [31]: 117%
- cell viability [32]: 104%
- cell viability [33]: 105%

SMILES: Cc1ccccc1C(C(=O)NC1CCCCC1)N(C(=O)CNc1ccc(C#N)cc1)c1cccc(F)c1 (centres undefined)
- cell viability [1]: 103%
- cell viability [2]: 111%
- cell viability [3]: 115%
- cell viability [4]: 106%
- cell viability [5]: 98.3%
- cell viability [6]: 111%
- cell viability [7]: 112%
- cell viability [8]: 99.4%
- cell viability [9]: 114%
- cell viability [10]: 84.2%
- cell viability [11]: 82.8%
- cell viability [12]: 77.2%
- cell viability [13]: 88.5%
- cell viability [14]: 94.5%
- cell viability [15]: 87.7%
- cell viability [16]: 103%
- cell viability [17]: 94%
- cell viability [18]: 93.7%
- cell viability [19]: 100%
- cell viability [20]: 89.6%
- cell viability [21]: 90.1%
- cell viability [22]: 87.3%
- cell viability [23]: 71.9%
- cell viability [24]: 110%
- cell viability [25]: 140%
- cell viability [26]: 142%
- cell viability [27]: 98.5%
- cell viability [28]: 84.7%
- cell viability [29]: 88.2%
- cell viability [30]: 70.1%
- cell viability [31]: 80.3%
- cell viability [32]: 97%
- cell viability [33]: 76.9%

SMILES: COc1cc2ncnc(Nc3ccc(F)c(Cl)c3)c2cc1OCCCN1CCOCC1
- cell viability [1]: 127%
- cell viability [2]: 115%
- cell viability [3]: 112%
- cell viability [4]: 95.3%
- cell viability [5]: 109%
- cell viability [6]: 117%
- cell viability [7]: 108%
- cell viability [8]: 96.8%
- cell viability [9]: 93.7%
- cell viability [10]: 64%
- cell viability [11]: 29.2%
- cell viability [12]: 111%
- cell viability [13]: 114%
- cell viability [14]: 109%
- cell viability [15]: 106%
- cell viability [16]: 102%
- cell viability [17]: 116%
- cell viability [18]: 104%
- cell viability [19]: 100%
- cell viability [20]: 101%
- cell viability [21]: 87.7%
- cell viability [22]: 86.2%
- cell viability [23]: 121%
- cell viability [24]: 112%
- cell viability [25]: 122%
- cell viability [26]: 112%
- cell viability [27]: 115%
- cell viability [28]: 113%
- cell viability [29]: 114%
- cell viability [30]: 109%
- cell viability [31]: 93.4%
- cell viability [32]: 97.5%
- cell viability [33]: 75.1%

SMILES: CC(C)(O)CNc1nc(Nc2ccnc(C(F)(F)F)c2)nc(-c2cccc(C(F)(F)F)n2)n1
- cell viability [1]: 99.2%
- cell viability [2]: 99.4%
- cell viability [3]: 131%
- cell viability [4]: 120%
- cell viability [5]: 146%
- cell viability [6]: 122%
- cell viability [7]: 134%
- cell viability [8]: 114%
- cell viability [9]: 99.4%
- cell viability [10]: 85.8%
- cell viability [11]: 72.8%
- cell viability [12]: 112%
- cell viability [13]: 115%
- cell viability [14]: 102%
- cell viability [15]: 109%
- cell viability [16]: 118%
- cell viability [17]: 106%
- cell viability [18]: 103%
- cell viability [19]: 123%
- cell viability [20]: 43.7%
- cell viability [21]: 50.3%
- cell viability [22]: 48.7%
- cell viability [23]: 105%
- cell viability [24]: 110%
- cell viability [25]: 120%
- cell viability [26]: 115%
- cell viability [27]: 121%
- cell viability [28]: 117%
- cell viability [29]: 109%
- cell viability [30]: 114%
- cell viability [31]: 56.3%
- cell viability [32]: 53.2%
- cell viability [33]: 62.5%

SMILES: O=C1c2cccc(O)c2C(=O)c2c(O)cc(CO)cc21
- cell viability [1]: 89.5%
- cell viability [2]: 109%
- cell viability [3]: 87.5%
- cell viability [4]: 89.8%
- cell viability [5]: 98.5%
- cell viability [6]: 81.8%
- cell viability [7]: 82.5%
- cell viability [8]: 86.5%
- cell viability [9]: 81.9%
- cell viability [10]: 75.8%
- cell viability [11]: 76.8%
- cell viability [12]: 96.8%
- cell viability [13]: 92.5%
- cell viability [14]: 92.1%
- cell viability [15]: 91.9%
- cell viability [16]: 87.1%
- cell viability [17]: 88.3%
- cell viability [18]: 90.6%
- cell viability [19]: 92.8%
- cell viability [20]: 81.9%
- cell viability [21]: 85.5%
- cell viability [22]: 78.9%
- cell viability [23]: 97.8%
- cell viability [24]: 106%
- cell viability [25]: 104%
- cell viability [26]: 95.4%
- cell viability [27]: 100%
- cell viability [28]: 93.1%
- cell viability [29]: 102%
- cell viability [30]: 79.7%
- cell viability [31]: 85.2%
- cell viability [32]: 94.5%
- cell viability [33]: 94.3%

SMILES: O=C(NC1CC1)c1cccc(-c2ccc3c(NC(=O)C4CC4)n[nH]c3c2)c1
- cell viability [1]: 101%
- cell viability [2]: 109%
- cell viability [3]: 117%
- cell viability [4]: 121%
- cell viability [5]: 119%
- cell viability [6]: 109%
- cell viability [7]: 119%
- cell viability [8]: 118%
- cell viability [9]: 122%
- cell viability [10]: 87.6%
- cell viability [11]: 38.3%
- cell viability [12]: 129%
- cell viability [13]: 113%
- cell viability [14]: 122%
- cell viability [15]: 139%
- cell viability [16]: 125%
- cell viability [17]: 115%
- cell viability [18]: 111%
- cell viability [19]: 112%
- cell viability [20]: 123%
- cell viability [21]: 98.7%
- cell viability [22]: 20.2%
- cell viability [23]: 118%
- cell viability [24]: 124%
- cell viability [25]: 123%
- cell viability [26]: 130%
- cell viability [27]: 124%
- cell viability [28]: 129%
- cell viability [29]: 110%
- cell viability [30]: 122%
- cell viability [31]: 132%
- cell viability [32]: 99.7%
- cell viability [33]: 35.3%

SMILES: c1cc(-c2sc(-c3ccncc3)c(-c3ccncc3)c2-c2ccncc2)ccn1
- cell viability [1]: 88.1%
- cell viability [2]: 111%
- cell viability [3]: 117%
- cell viability [4]: 111%
- cell viability [5]: 108%
- cell viability [6]: 129%
- cell viability [7]: 140%
- cell viability [8]: 114%
- cell viability [9]: 124%
- cell viability [10]: 116%
- cell viability [11]: 78.3%
- cell viability [12]: 118%
- cell viability [13]: 128%
- cell viability [14]: 106%
- cell viability [15]: 105%
- cell viability [16]: 113%
- cell viability [17]: 118%
- cell viability [18]: 127%
- cell viability [19]: 103%
- cell viability [20]: 98.2%
- cell viability [21]: 109%
- cell viability [22]: 93.4%
- cell viability [23]: 94.1%
- cell viability [24]: 107%
- cell viability [25]: 106%
- cell viability [26]: 104%
- cell viability [27]: 117%
- cell viability [28]: 106%
- cell viability [29]: 114%
- cell viability [30]: 105%
- cell viability [31]: 101%
- cell viability [32]: 90.9%
- cell viability [33]: 92.3%

SMILES: Nc1ccc([S+](=O)([O-])Nc2ccccn2)cc1
- cell viability [1]: 122%
- cell viability [2]: 106%
- cell viability [3]: 122%
- cell viability [4]: 117%
- cell viability [5]: 106%
- cell viability [6]: 115%
- cell viability [7]: 140%
- cell viability [8]: 133%
- cell viability [9]: 116%
- cell viability [10]: 124%
- cell viability [11]: 87.6%
- cell viability [12]: 110%
- cell viability [13]: 106%
- cell viability [14]: 111%
- cell viability [15]: 113%
- cell viability [16]: 121%
- cell viability [17]: 125%
- cell viability [18]: 112%
- cell viability [19]: 118%
- cell viability [20]: 126%
- cell viability [21]: 108%
- cell viability [22]: 79.8%
- cell viability [23]: 120%
- cell viability [24]: 121%
- cell viability [25]: 114%
- cell viability [26]: 109%
- cell viability [27]: 112%
- cell viability [28]: 121%
- cell viability [29]: 122%
- cell viability [30]: 130%
- cell viability [31]: 109%
- cell viability [32]: 115%
- cell viability [33]: 58.1%
